Data from patent US20040224995A1 (University of North Texas Health Science Center at Fort …, priority 2003, published 2004).

Tests used:
[1] = Middle cerebral artery occlusion (MCAO) in ovariectomized female rats; type: in vivo, rat; conditions: rats, doses given prior to MCA occlusion
Excerpt: (§1) Evaluating the role of cyclopentenone PGs and TZD's has also been completed in vivo. […] Troglitazone reduced the resulting infarct size by about 50% compared to vehicle (corn oil treated animals). This effective protection from a transient focal ischemic event by troglitazone argues that selective PPARγ agonists may be useful neuroprotectants during neurodegenerative events (e.g. stroke).
(§2) As shown below, the results from our experiments comprise results that indicate potent neuroprotective TZD's, as were used in neuronal cell lines are also effective in an animal model. Although not wanting to be bound by theory, the rat is the appropriate animal model for assessing the effects of drugs on neuronal damage, as the compounds to be evaluated are intended for use in humans. […] Female Sprague Dawley rats were purchased from Harlan in Indianapolis, Ind. Rats were housed in pairs in hanging, stainless steel cages in a temperature-controlled rooms (25±1° C.) with a daily light cycle (on from 0700 to 1900 h daily). All rats were allowed free access to laboratory chow and tap water. All procedures performed on animals will were reviewed and approved by the University of North Texas Health Science Center Institutional Animal Care and Use Committee (“ACUC”).
(§3) The female Sprague Dawley rats (225-250 g BW) were bilaterally ovariectomized using a dorsal approach. Animals were anesthetized with ketamine ([…]) and xylazine (10 mg/kg). A small (1 cm) cut was made through the skin, fascia, and muscle. […] Percent ischemic lesion area was calculated. * indicates p<0.05 vs. respective control group. […]
(§4) Each group of animals was decapitated 24 h after MCAO. […] Slices were then fixed in a 10% formalin and photographed by a digital camera (Sony MVC-FD5), and the ischemic lesion area were determined for each slice using the Image-Pro Plus software (Media Cybernectics, Silver Spring, Md.). Percent ischemic lesion area was calculated as the sum of the ischemic lesion area for the five slices divided by the total cross sectional area of these five slices.

[2] = system: ischemic lesion after MCAO; experiment: as above; type: in vivo, rat
Excerpt: as §1, §2, §3, §4

Cc1c(C)c2c(c(C)c1O)CCC(C)(COc1ccc(CC3SC(=O)NC3=O)cc1)O2 (stereo not drawn) [troglitazone]
brain concentrations [1]: about 7 μM
reduction of infarct size compared to vehicle ([2]; rats treated prior to MCA occlusion, vehicle corn oil): about 50%
reduction of ischemic lesion area compared to control animals ([2]; s.c. injection 12 h and 2 h before MCAO, 60 min occlusion, 24 h reperfusion): about 50%
